Test results taken from patent publication US20100256179A1, “COMBINATION THERAPY FOR PAIN IN PAINFUL DIABETIC NEUROPATHY” (UCB PHARMA GMBH, priority 2004, published 2010).

Key:
[1] = test system: formalin-induced flinching and licking response of the affected paw; assay: rat formalin paw test (late phase); type: in vivo
Protocol: Rats were given an intraplantar injection of 5% formalin (50 μl) into the posterior left paw. This treatment induces a recognizable flinching and licking response of the affected paw in control animals. The number of flinches was counted for 15 minutes, beginning 20 minutes after injection of formalin. The time spent licking the affected paw was also recorded.
Male Rj: Wistar (Han) rats, 10 per group, weighing 100-130 g at the beginning of the experiments were studied per group. The test was performed blind.

[2] = test system: pain in subjects with diabetic distal sensory polyneuropathy; assay: Randomized, double-blind placebo controlled trial of lacosamide in painful diabetic neuropathy: efficacy; type: in vivo, human
Protocol: A randomized, double-blind placebo controlled trial to investigate safety and efficacy of lacosamide in painful diabetic neuropathy was conducted.
Baseline data were collected during the last week of a 4-week Run-In Phase to ensure subject eligibility. […] The highest attained dose was maintained for 4 weeks during the Maintenance Phase, after which subjects entered the Taper Phase and were tapered off of study medication for 1 week. The Taper Phase was followed by a 2-week Safety Follow-Up Phase.
Subjects were male or female, age 18 or older. Subjects had clinically diagnosed pain attributed to diabetic distal sensory polyneuropathy for 1-5 years and a diagnosis of diabetes mellitus (Type I or Type II). Subjects had at least moderate pain (mean pain intensity during the Baseline week ≧4 out of 10 on an 11-point Likert scale) which had been stable for 4 weeks prior to randomization. Furthermore, subjects had good or fair diabetic control (glycosylated hemoglobin (HbA1C) <10%), which was optimized (best effort to achieve best control) for at least three months prior to Visit 1. Test product, dose and mode of administration, batch number
After completion of screening assessments, subjects began a 4-week Run-In Phase. […] Following the titration scheme, their dosage was escalated by 100 mg in weekly increments to a maximum dose of 400 mg/day (provided tolerability was satisfactory).
If subjects reached total or sufficient pain relief with lower doses than 400 mg/day, after careful consideration by the investigator, they were allowed to stay on the attained dose level in the Maintenance Phase. If adverse events were intolerable during the Titration Phase or the first week of the Maintenance Phase (only for those subjects reaching the 400 mg/day level), subjects could be down-titrated, once, to the next lowest dose. Subjects were treated at 400 mg/day (or highest dose achieved) for 4 weeks in the Maintenance Phase.
The primary variable was the within-subject change in average daily pain score from the Baseline week to Maintenance Phase, using an 11-point Likert scale (0-10). […]

[3] = Trough and peak plasma concentrations of unchanged lacosamide in the trial; type: in vivo, human; conditions: 400 mg/day, Maintenance Phase
[4] = Safety and tolerability of lacosamide in the trial; type: in vivo, human
From the text: Safety variables evaluated included adverse events, clinical laboratory assessments, electrocardiograms (ECGs), vital sign measurements, and physical and neurological examinations.

[5] = Example 4, duloxetine 8 mg/kg i.p.
[6] = Example 2, gabapentin 50 mg/kg i.p.
[7] = Example 2, gabapentin 100 mg/kg i.p.
[8] = of 60 subjects in the lacosamide group
[9] = Example 2, lacosamide 20 mg/kg i.p.
[10] = Example 3, lacosamide 10 mg/kg i.p.
[11] = Example 3, lacosamide 20 mg/kg i.p.
[12] = Example 4, lacosamide 10 mg/kg i.p.
[13] = Example 5, lacosamide 10 mg/kg i.p.
[14] = Example 5, lacosamide 20 mg/kg i.p.
[15] = Example 5, lacosamide alone at 10 mg/kg
[16] = Example 5, memantine 4 mg/kg i.p.
[17] = Example 5, memantine 8 mg/kg i.p.
[18] = Example 3, morphine 2 mg/kg i.p.
[19] = Example 3, morphine 4 mg/kg i.p.

In the case of `CNCC[C@H](Oc1cccc2ccccc12)c1cccs1` [Duloxetine], the “effects on number of flinches and time spent licking” value ([1]; Example 4, duloxetine 8 mg/kg alone) is reported as “no clear effects”, the “Licking time % change (a): compared with vehicle control” value (“Licking time % change” below) [1, 5] is reported as −26% (a) and the “Licking time (seconds) mean ± SEM” value [1, 5] is reported as 195.5 ± 45.0 s. The “No. of flinches % change (a): compared with vehicle control” value (shortened to “No. of flinches % change”) [1, 5] was −1% (a) and the “No. of flinches mean ± SEM” value [1, 5] was 149.6 ± 27.3.

With `NCC1(CC(=O)O)CCCCC1` [Gabapentin] the “Licking time % change” value [1, 6] was −28% (a), the “Licking time (seconds) mean ± SEM” value [1, 6] was 161.0 ± 27.3 s and the “No. of flinches % change” value [1, 6] was −24% (a). For the same compound, the “No. of flinches mean ± SEM” value [1, 6] was 97.4 ± 23.8, the “Licking time % change” value [1, 7] was −60% (a) and the “Licking time (seconds) mean ± SEM” value [1, 7] was 90.0 ± 22.5 s. The “No. of flinches % change” value [1, 7] was −31% (a), the “No. of flinches mean ± SEM” value [1, 7] was 88.1 ± 19.4 and the “decrease in time spent licking” value ([1]; Example 2, gabapentin alone at 50 mg/kg) was 28%. The “decrease in number of flinches as compared with vehicle controls” value (“decrease in number of flinches” below) ([1]; Example 2, gabapentin alone at 50 mg/kg, non-significant) was 24%, the “decrease in number of flinches” value ([1]; Example 2, gabapentin alone at 100 mg/kg, non-significant) was 31% and the “decrease in time spent licking” value ([1]; Example 2, gabapentin alone at 100 mg/kg, p<0.05) was 60%.

With `COC[C@@H](NC(C)=O)C(=O)NCc1ccccc1` [Lacosamide, (R)-2-acetamido-N-benzyl-3-methoxypropionamide] the “reduction in pain from Baseline to the Maintenance Phase (average daily pain score, 11-point Likert scale), LSMean” value ([2]; Full Analysis Set (LOCF), oral lacosamide titrated to max 400 mg/day) was 3.11 point, the “proportion of subjects with a decrease of 2 or more points on the Likert pain scale” value ([2]; compared with the placebo group, all phases of the trial) was “larger proportion” and the “CGIC and PGIC scores” value ([2]; end of Maintenance Phase (Visit 10), lacosamide and placebo) was “Statistically significant differences”. For the same compound, the “difference in LSMean pain score between the two groups” value ([2]; lacosamide vs placebo, FAS (LOCF), p=0.0390) was 0.9, the “mean plasma drug concentration, peak” value ([3]; Visit 9) was 11400 ng/mL and the “mean plasma drug concentration, trough” value ([3]; Visit 9) was 7700 ng/mL. For the same compound, the “mean plasma drug concentration, peak” value ([3]; Visit 10) was 9100 ng/mL, the “mean plasma drug concentration, trough” value ([3]; Visit 10) was 7900 ng/mL and the “HbA1C level, mean change” value ([4]; Baseline to Visit 8, lacosamide group) was 0.1%. The “Body weight change during treatment” value ([4]; lacosamide group) was -0.5 kg, the “subjects who withdrew from the trial due to an AE” value ([4]; lacosamide group) was 5 subjects and the “subjects with a serious adverse event (SAE)” value ([4]; lacosamide treatment group, abnormal ECG judged unlikely related to study medication) was “one”. The “mean duration of exposure to study medication” value ([4]; lacosamide treatment group, indicating high tolerability) was 59.6 days, the “subjects reporting adverse events associated with the central and peripheral nervous system” value ([4]; of 60 lacosamide subjects) was 38% and the “subjects who reported at least one treatment-emergent adverse event (TEAE), overall incidence rate” value [4, 8] was 87%. For the same compound, the “subjects who withdrew from the trial due to an AE” value [4, 8] was 8%, the weight gain ([4]; trial conclusion) was “did not induce weight gain” and the “Licking time % change” value [1, 9] was −34% (a). The “Licking time (seconds) mean ± SEM” value [1, 9] was 146.9 ± 23.8 s, the “No. of flinches % change” value [1, 9] was −33% (a) and the “No. of flinches mean ± SEM” value [1, 9] was 85.7 ± 14.3. The “decrease in number of flinches” value ([1]; Example 2, lacosamide alone at 20 mg/kg) was 33%, the “decrease in time spent licking as compared with vehicle controls” value ([1]; Example 2, lacosamide alone at 20 mg/kg, p=0.0962) was 34% and the “Licking time % change” value [1, 10] was −28% (a). For the same compound, the “Licking time (seconds) mean ± SEM” value [1, 10] was 210.1 ± 22.7 s, the “No. of flinches % change” value [1, 10] was “+22% (a)” and the “No. of flinches mean ± SEM” value [1, 10] was 182.7 ± 25.9. The “Licking time % change” value [1, 11] was −56% (a), the “Licking time (seconds) mean ± SEM” value [1, 11] was 128.2 ± 28.0 s and the “No. of flinches % change” value [1, 11] was −35% (a). The “No. of flinches mean ± SEM” value [1, 11] was 97.2 ± 16.0, the “increase in number of flinches as compared with vehicle controls” value ([1]; Example 3, lacosamide alone at 10 mg/kg) was 22% and the “decrease in time spent licking” value ([1]; Example 3, lacosamide alone at 10 mg/kg, p<0.05) was 28%. The “decrease in time spent licking” value ([1]; Example 3, lacosamide alone at 20 mg/kg, p<0.001) was 56%, the “decrease in number of flinches” value ([1]; Example 3, lacosamide alone at 20 mg/kg, p=0.0961) was 35% and the “decrease in time spent licking” value ([1]; Example 4, lacosamide 10 mg/kg alone, p=0.0538) was 30%. The “Licking time % change” value [1, 12] was −30% (a), the “Licking time (seconds) mean ± SEM” value [1, 12] was 185.2 ± 31.7 s and the “No. of flinches % change” value [1, 12] was “+5% (a)”. The “No. of flinches mean ± SEM” value [1, 12] was 158.2 ± 15.6, the “Licking time % change” value [1, 13] was −4% (a) and the “Licking time (seconds) mean ± SEM” value [1, 13] was 168.5 ± 23.9 s. The “No. of flinches % change” value [1, 13] was −31% (a), the “No. of flinches mean ± SEM” value [1, 13] was 113.9 ± 23.2 and the “Licking time % change” value [1, 14] was −52% (a). For the same compound, the “Licking time (seconds) mean ± SEM” value [1, 14] was 85.1 ± 19.1 s, the “No. of flinches % change” value [1, 14] was −48% (a) and the “No. of flinches mean ± SEM” value [1, 14] was 85.8 ± 14.4. The “decrease in number of flinches” value [1, 15] was 31%, the “effect on time spent licking” value [1, 15] was “no clear effects” and the “decrease in time spent licking” value ([1]; Example 5, lacosamide alone at 20 mg/kg, p<0.01) was 52%. The “decrease in number of flinches” value ([1]; Example 5, lacosamide alone at 20 mg/kg, p<0.05) was 48%.

For `CC12CC3CC(C)(C1)CC(N)(C3)C2` [Memantine], the “Licking time % change” value [1, 16] was “+25% (a)”, the “Licking time (seconds) mean ± SEM” value [1, 16] was 219.9 ± 21.8 s and the “No. of flinches % change” value [1, 16] was −3% (a). For the same compound, the “No. of flinches mean ± SEM” value [1, 16] was 161.4 ± 26.3, the “Licking time % change” value [1, 17] was “+35% (a)” and the “Licking time (seconds) mean ± SEM” value [1, 17] was 237.3 ± 18.9 s. For the same compound, the “No. of flinches % change” value [1, 17] was −20% (a), the “No. of flinches mean ± SEM” value [1, 17] was 132.3 ± 24.6 and the “increase in time spent licking” value ([1]; Example 5, memantine alone at 4 mg/kg, p=0.0537) was 25%. The “increase in time spent licking” value ([1]; Example 5, memantine alone at 8 mg/kg, p<0.05) was 35% and the “number of flinches as compared with vehicle controls” value ([1]; Example 5, memantine alone at 4 and 8 mg/kg) was “did not clearly affect”.

With `CN1CC[C@]23c4c5ccc(O)c4O[C@H]2[C@@H](O)C=C[C@H]3[C@H]1C5` [Morphine] the “Licking time % change” value [1, 18] was −1% (a), the “Licking time (seconds) mean ± SEM” value [1, 18] was 289.3 ± 30.7 s and the “No. of flinches % change” value [1, 18] was −7% (a). The “No. of flinches mean ± SEM” value [1, 18] was 139.5 ± 25.3, the “Licking time % change” value [1, 19] was −20% (a) and the “Licking time (seconds) mean ± SEM” value [1, 19] was 234.9 ± 37.3 s. The “No. of flinches % change” value [1, 19] was −37% (a), the “No. of flinches mean ± SEM” value [1, 19] was 94.3 ± 21.1 and the “number of flinches and time spent licking as compared with vehicle controls” value ([1]; Example 3, morphine alone at 2 and 4 mg/kg, effects did not reach statistical significance) was “dose-dependently decreased”.
